Measured values from publication PMC6407576, “Synthesis and evaluation of anticancer, antiphospholipases, antiproteases, and antimetabolic syndrome activities of some 3H-quinazolin-4-one derivatives” (Journal of Enzyme Inhibition and Medicinal Chemistry, 2019).

Key:
[1] = system: HT-29 cells; experiment: MTT cell viability assay; format: cell-based, Human; conditions: for viability at 30 µg/mL: Homo sapiens, HT-29, 24 h, read-out: cell viability; for inhibition of cell viability (in words): HT-29, 30 μg/ml, MTT
Procedure: (§1) Human CRC cell lines, HT-29 and SW620 cells were grown in RPMI (Invitrogen) containing 10% heat-inactivated foetal bovine serum, 100 µg/ml streptomycin, 100 units/ml penicillin and 2 mmol/l L-glutamine.
(§2) Cell viability was determined using the 3-(4, 5-dimethylthiazolyl-2)–2, 5-diphenyltetrazolium bromide) MTT assay according to Mosmann[40]. 5-Fluorouracil (5-FU) was used as positive control. Briefly, after culturing cells in 96 well plates for 24 h, they were treated with different compounds (30 μg/ml) for 24 h. Freshly prepared MTT (5 mM) solutions were added to the cells and were further incubated for 2 h at 37 °C in 5% CO2. One hundred microliters of dimethyl sulphoxide (DMSO) was added in each well to dissolve the formazan crystal, formed in the reaction during incubation by careful pipetting. The absorbance of the product was measured at 540 nm using a microplate reader. The experiments were performed in triplicate for each condition. The graph illustrates the mean and standard deviation (SD) values of three independent experiments.

[2] = system: SW620 cells; experiment: MTT cell viability assay; format: cell-based, Human; conditions: for viability at 30 µg/mL: Homo sapiens, SW-620, 24 h, read-out: cell viability; for inhibition of cell viability (in words): SW620, 30 μg/ml, MTT
Procedure: as §1, §2

[3] = target: xanthine oxidase (Homo sapiens, UniProt P47989); experiment: In vitro inhibition of xanthine oxidase; format: biochemical
Procedure: The xanthine oxidase inhibitory activities of the examined chemical compounds were determined by following the formation of uric acid from xanthine according to the reported method by Bondet and co-workers[46]. […] The results were expressed as IC50 determined from the curve.

[4] = target: Apis mellifera bee venom (AmPLA2) (Apis mellifera, UniProt P00630); experiment: biochemical
[5] = target: Naja mossambica mossambica sPLA2 (NmPLA2); experiment: In vitro antiphospholipase activity; format: biochemical; conditions: 20 min preincubation, lecithin substrate, pH 7.6
[6] = target: T1, human group X (hG-X) sPLA2 (Homo sapiens, UniProt O15496); experiment: In vitro antiphospholipase activity; format: biochemical; conditions: 20 min preincubation, lecithin substrate, pH 7.6; read-out: mean IC50 against hG-X (converted)
T1 sequence (O15496 43-165): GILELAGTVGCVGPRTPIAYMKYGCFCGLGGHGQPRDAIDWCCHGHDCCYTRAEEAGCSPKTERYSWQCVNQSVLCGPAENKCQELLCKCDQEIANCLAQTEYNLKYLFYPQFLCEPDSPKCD

[7] = target: T2, human group V (hG-V) sPLA2 (Homo sapiens, UniProt P39877); experiment: In vitro antiphospholipase activity; format: biochemical; conditions: 20 min preincubation, lecithin substrate, pH 7.6; read-out: mean IC50 against hG-V (converted)
T2 sequence (P39877 21-138): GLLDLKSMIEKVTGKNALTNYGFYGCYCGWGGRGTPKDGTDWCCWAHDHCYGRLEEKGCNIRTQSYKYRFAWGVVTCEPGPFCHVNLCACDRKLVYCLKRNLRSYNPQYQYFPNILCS

[8] = target: collagenase; experiment: In vitro antiprotease activity; format: biochemical; conditions: 15 min preincubation
Procedure: (§3) The inhibitory effects of 21 3H-quinazolin-4-one derivatives on several available therapeutically important proteases such as cathepsin-B, collagenase, elastase, thrombin, and trypsin were investigated. […] The protease inhibitory activity was expressed as inhibition percentage, which was determined by comparison with a control experiment. The results were expressed as IC50 values that were determined from the standard curve. A protease inhibitor cocktail (Sigma) was used as the positive control.

[9] = target: T3, trypsin (Bos taurus, UniProt P00760); experiment: In vitro antiprotease activity; format: biochemical; conditions: 15 min preincubation; read-out: mean IC50 against Trypsin (converted)
T3 construct: gene PRSS1
T3 sequence (P00760 24-246): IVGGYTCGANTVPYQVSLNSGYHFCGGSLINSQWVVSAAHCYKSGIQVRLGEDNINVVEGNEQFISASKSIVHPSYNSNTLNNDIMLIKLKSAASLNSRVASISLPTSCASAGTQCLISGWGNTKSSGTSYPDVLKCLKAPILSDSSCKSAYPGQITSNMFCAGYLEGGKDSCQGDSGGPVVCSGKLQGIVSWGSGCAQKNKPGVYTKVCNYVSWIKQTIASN
Procedure: as §3

[10] = target: thrombin (Homo sapiens, UniProt P00734); experiment: In vitro antiprotease activity; format: biochemical; conditions: 15 min preincubation; read-out: mean IC50 against Thrombin (converted)
Procedure: as §3

[11] = target: cathepsin-B (Homo sapiens, UniProt P07858); experiment: In vitro antiprotease activity; format: biochemical; conditions: 15 min preincubation; read-out: mean IC50 against Cathepsin-B (converted)
Procedure: as §3

[12] = target: elastase; experiment: In vitro antiprotease activity; format: biochemical; conditions: 15 min preincubation
Procedure: as §3

[13] = target: T4, human group IIA (hG-IIA) sPLA2 (Homo sapiens, UniProt P14555); experiment: In vitro antiphospholipase activity; format: biochemical
T4 sequence (P14555 21-144): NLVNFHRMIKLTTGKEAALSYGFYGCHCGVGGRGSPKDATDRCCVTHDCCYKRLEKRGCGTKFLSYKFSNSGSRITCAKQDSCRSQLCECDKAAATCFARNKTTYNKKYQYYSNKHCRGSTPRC

Chain of Apis mellifera bee venom (AmPLA2) (P00630 34-167 limits assumed): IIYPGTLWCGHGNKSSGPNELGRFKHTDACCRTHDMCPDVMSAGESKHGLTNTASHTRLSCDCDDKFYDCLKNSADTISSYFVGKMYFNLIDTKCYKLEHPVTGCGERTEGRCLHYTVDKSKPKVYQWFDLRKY
Chain of xanthine oxidase (P47989 whole entry, species assumed): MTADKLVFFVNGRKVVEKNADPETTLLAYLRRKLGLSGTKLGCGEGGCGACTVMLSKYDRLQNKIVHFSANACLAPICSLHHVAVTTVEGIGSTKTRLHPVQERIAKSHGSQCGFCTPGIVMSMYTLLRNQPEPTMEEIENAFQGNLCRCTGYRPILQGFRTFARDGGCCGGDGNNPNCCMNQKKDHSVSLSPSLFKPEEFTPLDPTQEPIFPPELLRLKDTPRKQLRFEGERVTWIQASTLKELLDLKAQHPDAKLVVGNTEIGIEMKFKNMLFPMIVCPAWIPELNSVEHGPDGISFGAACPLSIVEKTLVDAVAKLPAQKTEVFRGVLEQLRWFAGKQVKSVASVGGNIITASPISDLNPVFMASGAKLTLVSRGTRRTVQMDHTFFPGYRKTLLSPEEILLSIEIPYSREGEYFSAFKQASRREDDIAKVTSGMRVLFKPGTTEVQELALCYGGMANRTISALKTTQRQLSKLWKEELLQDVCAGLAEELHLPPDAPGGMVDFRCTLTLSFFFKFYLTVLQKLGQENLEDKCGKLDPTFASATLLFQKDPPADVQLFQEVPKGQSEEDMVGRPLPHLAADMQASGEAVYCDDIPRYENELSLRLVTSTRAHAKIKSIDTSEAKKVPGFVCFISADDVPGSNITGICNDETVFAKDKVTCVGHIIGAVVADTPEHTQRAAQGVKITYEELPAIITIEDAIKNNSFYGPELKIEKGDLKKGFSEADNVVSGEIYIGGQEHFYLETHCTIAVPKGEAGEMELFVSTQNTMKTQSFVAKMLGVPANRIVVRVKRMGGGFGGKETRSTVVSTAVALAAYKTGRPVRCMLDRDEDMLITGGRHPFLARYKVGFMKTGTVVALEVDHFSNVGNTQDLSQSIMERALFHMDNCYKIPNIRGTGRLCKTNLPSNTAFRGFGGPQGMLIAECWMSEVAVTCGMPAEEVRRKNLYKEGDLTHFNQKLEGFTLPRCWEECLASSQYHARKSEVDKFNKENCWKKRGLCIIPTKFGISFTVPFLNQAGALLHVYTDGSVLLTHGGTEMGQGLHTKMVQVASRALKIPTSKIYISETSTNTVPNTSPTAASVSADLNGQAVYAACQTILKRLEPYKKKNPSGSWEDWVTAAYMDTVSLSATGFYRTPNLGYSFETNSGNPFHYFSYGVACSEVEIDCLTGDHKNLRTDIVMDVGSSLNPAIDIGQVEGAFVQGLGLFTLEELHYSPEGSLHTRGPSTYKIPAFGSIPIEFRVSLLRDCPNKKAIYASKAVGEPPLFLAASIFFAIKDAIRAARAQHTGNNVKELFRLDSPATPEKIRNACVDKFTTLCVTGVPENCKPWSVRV

Structure (SMILES)	viability at 30 µg/mL [1] [%]	viability at 30 µg/mL [2] [%]	IC50 [3] [µM]	IC50 [4] [µM]	melting point [°C]	mean IC50 against NmPLA2 [5] [µg/mL]	IC50 [6] [µM]	IC50 [7] [µM]	mean IC50 against Collagenase [8] [µg/mL]	IC50 [9] [µM]	IC50 [10] [µM]	IC50 [11] [µM]	mean IC50 against Elastase [12] [µg/mL]	IC50 [13] [µM]	inhibition of cell viability (in words) [1]	inhibition of cell viability (in words) [2]
O=c1[nH]cc(F)c(=O)[nH]1 [Compound 5-FU, 5-Fluorouracil, reference compound]	65.9	42.7														
COc1cc(-n2c(C)nc3ccc(F)cc3c2=O)cc(OC)c1OC [Compound 5b, 6 -Fluoro-2-methyl-3–(3,4,5-trimethoxy-phenyl)-3H-quinazolin-4-one]		46.6	15.7	14.8	193 to 195	4.15 ± 0.50	24.7	36.3	18.00 ± 1.41	3.19	2.61	31.9	0.70 ± 0.01	60.3		
Cc1nc2ccccc2c(=O)n1/N=C/c1ccc2ccccc2c1 [Compound 8a, (E)-2-Methyl-3-[(naphthalen-2-ylmethylene)-amino]-3H-quinazolin-4-one]			137	98.9		36.75 ± 2.48	90.9	121	31.00 ± 1.41	110	109	116	32.50 ± 2.12	145	potently capable of inhibiting cell viability	potently capable of inhibiting cell viability
COc1cccc(/C=N/n2c(C)nc3ccc(Br)cc3c2=O)c1[N+](=O)[O-] [Compound 8f, (E)-6-Bromo-3-[(3-methoxy-2-nitro-benzylidene)-amino]-2-methyl-3H-quinazolin-4-one]			7.19	10.1	234 to 235	6.00 ± 0.71	43.1	37.7	15.50 ± 2.12	74.3	59.9	45.5	30.50 ± 2.12	44.6	potently capable of inhibiting cell viability	potently capable of inhibiting cell viability
Cc1nc2ccc(Br)cc2c(=O)n1/N=C/c1ccc(-c2ccccc2)cc1 [Compound 8j, (E)-3-[(Biphenyl-4-ylmethylene)-amino]-6-bromo-2-methyl-3H-quinazolin-4-one]			49	45.4	208 to 210	16.40 ± 0.85	22.6	14.9	14.00 ± 1.41	22.7	29.9	3.35	9.00 ± 0.41	20.2	potently capable of inhibiting cell viability	potently capable of inhibiting cell viability
O=c1c2ccccc2nc(SCc2ccc(Cl)cc2)n1-c1ccccc1 [Compound 15a]			31.7	17.2		5.40 ± 0.57	17.8	27.7	28.00 ± 1.41	31.7	35.6	48.8	11.50 ± 2.12	22.7	potently capable of inhibiting cell viability	potently capable of inhibiting cell viability
Cc1ccc2nc(SCc3ccc(Cl)cc3)n(-c3ccccc3)c(=O)c2c1 [Compound 15b, 2-(4-Chloro-benzylsulfanyl)-6-methyl-3-phenyl-3H-quinazolin-4-one]			49.6	34.6	164 to 165	14.85 ± 0.50	34.4	46.8	26.50 ± 2.12	1.27	2.55	34.4	0.65 ± 0.02	66.2	potently capable of inhibiting cell viability	potently capable of inhibiting cell viability
Cc1cccc(C)c1NC(=O)CSc1nc2ccccc2c(=O)n1-c1ccccc1 [Compound 15c, N-(2,6-Dimethyl-phenyl)-2-(4-oxo-3-phenyl-3,4-dihydro-quinazolin-2-ylsulfanyl)-acetamide]	47.5		148	52.9	218 to 220	28.50 ± 2.12	102	56.6	18.00 ± 1.41	37.3	42.1	26.5	18.50 ± 0.71	96.3		
